# According to patent US11110102B2, “Antifungal agents used in combination” (Scynexis, Inc., priority 2017, dated 2021):
# Values joined by “and” are separate entries in the source; they are usually repeats but may differ in a detail not shown here. Equal entries are not always repeated.
# Columns and labels:
# Assay in all cases: Checkerboard combination MIC testing
# Format in all cases: cell-based, Aspergillus fumigatus
# A. fumigatus MRL #28401 = conditions: A. fumigatus MRL 28401 (wild-type), read at 48 hours, duplicate
# From the text: (§1) To determine the type of interaction between a representative compound of the enfumafungin derivatives (SCY-078) with several antifungal agents against Aspergillus fumigatus, the most frequent mold causing invasive disease in humans, the checkerboard method was used. The citrate salt of the compound was used in the studies.
# (§2) The checkerboard method involves the determination of percent growth inhibition of fungal cells in the presence of different combinations of drugs. Percent growth inhibition is calculated relative to growth in control wells which contain only cells and no drug. The assay was performed in 96-well microplates in which each row and each column contained twofold serial dilutions of drug A and drug B at concentrations ranging from 0 to slightly higher than their minimum inhibitory concentration (MIC). […] Then the inoculum was added to each well and the growth was evaluated after 48 hrs incubation to determine the first well in which growth was inhibited. The checkerboard-based determination of MICs of antifungal agents in combination was followed by further analysis employing the nonparametric fractional inhibitory concentration index (FICI), which is defined by the following equation:
# (§3) [formula] where MIC-A and MIC-B are the MICs of drugs A and B, respectively.
# (§4) Each drug was initially diluted in either sterile, distilled water or in DMSO, depending on whether the drug was water-soluble or water-insoluble, respectively.
# (§5) Stock solution of SCY-078 was prepared in DMSO at 200 times the concentration desired for use in the drug plates. Serial dilutions of stock solution were conducted in DMSO to obtain eleven 2-fold dilutions of the drug. The SCY-078 solution was then diluted to 4 times the desired concentration in RPMI-1640 medium so that the DMSO would not limit growth of the organism and so that the quantity of DMSO was the same for every dilution.
# (§6) Two 96-well plates are needed to conduct a combination test. Using a multichannel pipette, 50 μl of the lowest concentration of the first drug (Drug A) was added to each well of column 1 of the first plate (plate A) and column 1 of the second plate (plate B; rows A-D). Then, 50 μl of the next highest working dilution of Drug A was added to each well in column 2, continuing with dilutions until all columns 1-11 were filled. Column 12 was left empty. 50 μl of the lowest concentration of Drug B was added to each well in Row D of plate B. 50 μl of the next highest working dilution of Drug B was added to each well in row C of plate B, continuing with dilutions until all rows through row B of plate A were filled.
# (§7) Following the above, 100 μl of organism inoculum was added to every well. The plates were then incubated for 48 hours and visually read after incubation.
# (§8) The objective of the study was to determine whether the combination of SCY-078 with voriconazole, isavuconazole, or amphotericin B would result in a combined in vitro antifungal activity exceeding the sum of the activities of each drug alone. Combination MIC testing was performed using the checkerboard assay described above.
# (§9) Initial MIC determinations of the individual antifungals were performed according to the Clinical and Laboratory Standards Institute (CLSI) M38-A2 standard for the susceptibility testing of filamentous fungi.
# (§10) Combination MIC testing was performed using a checkerboard test method according to the Center for Medical Mycology SOP A11.3. The checkerboard combination test method is a modification of the microdilution antifungal susceptibility test wherein two test compounds are combined in varying concentrations to determine whether they have synergistic, antagonistic, or no effect on the respective MIC values.
# (§11) Antifungals were serially diluted two-fold in RPMI medium to produce eleven concentrations each and were combined in wells of a microtiter plate. Two rows consisting of serial dilutions of each individual drug were included. All combination testing was conducted in duplicate. […]
# A. fumigatus MRL #28378 = conditions: A. fumigatus MRL 28378 (wild-type), read at 48 hours, duplicate
# From the text: as §1, §2, §3, §4, §5, §6, §7, §8, §9, §10, §11
# A. fumigatus MRL #20438 = conditions: A. fumigatus MRL 20438 (wild-type), read at 48 hours, duplicate
# From the text: as §1, §2, §3, §4, §5, §6, §7, §8, §9, §10, §11
# A. fumigatus MRL #28382 = conditions: A. fumigatus MRL 28382 (wild-type), read at 48 hours, duplicate
# From the text: as §1, §2, §3, §4, §5, §6, §7, §8, §9, §10, §11
# A. fumigatus MRL #28383 = conditions: A. fumigatus MRL 28383 (azole-resistant), read at 48 hours, duplicate
# From the text: as §1, §2, §3, §4, §5, §6, §7, §8, §9, §10, §11
# A. fumigatus MRL #28500 = conditions: read at 48 hours, duplicate
# From the text: as §1, §2, §3, §4, §5, §6, §7, §8
# A. fumigatus 28500 has a CYP51 mutation at F46Y.
# as §9, §10
# Antifungals were serially diluted two-fold in RPMI medium to produce eleven concentrations each and were combined in wells of a microtiter plate. Two rows consisting of serial dilutions of each individual drug were included. […]
# [1] = SCY-078 combined with amphotericin B
# [2] = drug alone, SCY-078/amphotericin B test
# [3] = SCY-078 combined with voriconazole
# [4] = Aspergillus fumigatus, SCY078, 48 h, drug alone, SCY-078/voriconazole test, read-out: MIC Alone
structure (smiles),measurement,setting,value
"C[C@@H]1[C@H](O)[C@@H](C)/C=C/C=C/C=C/C=C/C=C/C=C/C=C/[C@H](O[C@@H]2O[C@H](C)[C@@H](O)[C@H](N)[C@@H]2O)C[C@@H]2O[C@](O)(C[C@@H](O)C[C@@H](O)[C@H](O)CC[C@@H](O)C[C@@H](O)CC(=O)O[C@H]1C)C[C@H](O)[C@H]2C(=O)O [Amphotericin B, amphotericin B]",MIC in Combination,A. fumigatus MRL #28401; [1],1 µg/mL and 0.5 µg/mL
same,MIC Alone,A. fumigatus MRL #28401; [2],4 µg/mL
same,MIC in Combination,A. fumigatus MRL #28378; [1],0.5 µg/mL
same,MIC Alone,A. fumigatus MRL #28378; [2],2 µg/mL
same,MIC in Combination,A. fumigatus MRL #20438; [1],0.5 µg/mL
same,MIC Alone,A. fumigatus MRL #20438; [2],4 µg/mL
same,MIC in Combination,A. fumigatus MRL #28382; [1],1 µg/mL and 0.5 µg/mL
same,MIC Alone,A. fumigatus MRL #28382; [2],4 µg/mL
same,MIC in Combination,A. fumigatus MRL #28383; [1],4 µg/mL and 2 µg/mL
same,MIC Alone,A. fumigatus MRL #28383; [2],4 µg/mL and 2 µg/mL
same,MIC in Combination,"A. fumigatus MRL #28500; A. fumigatus MRL 28500 (azole-resistant, CYP51 F46Y), SCY-078 combined with amphotericin B",1 µg/mL
same,MIC Alone,"A. fumigatus MRL #28500; A. fumigatus MRL 28500 (azole-resistant, CYP51 F46Y), drug alone, SCY-078/amphotericin B test",4 µg/mL
"C[C@@H](c1ncncc1F)[C@](O)(Cn1cncn1)c1ccc(F)cc1F [Voriconazole, voriconazole]",MIC in Combination,A. fumigatus MRL #28401; [3],0.5 µg/mL
same,MIC,A. fumigatus MRL #28401; [4],2 µg/mL
same,MIC Alone,"A. fumigatus MRL #28378; drug alone, SCY-078/voriconazole test",0.25 µg/mL
same,MIC,A. fumigatus MRL #28378; [4],0.5 µg/mL
same,MIC in Combination,A. fumigatus MRL #20438; [3],0.25 µg/mL
same,MIC,A. fumigatus MRL #20438; [4],1 µg/mL
same,MIC in Combination,A. fumigatus MRL #28382; [3],0.125 µg/mL and 0.25 µg/mL
same,MIC,A. fumigatus MRL #28382; [4],0.5 µg/mL
same,MIC in Combination,A. fumigatus MRL #28383; [3],>16 µg/mL
same,MIC,A. fumigatus MRL #28383; [4],> 16 µg/mL
same,MIC in Combination,"A. fumigatus MRL #28500; A. fumigatus MRL 28500 (azole-resistant, CYP51 F46Y), SCY-078 combined with voriconazole",>16 µg/mL
same,MIC,"A. fumigatus MRL #28500; Aspergillus fumigatus, SCY078, 48 h, read-out: MIC Alone, A. fumigatus MRL 28500 (azole-resistant, CYP51 F46Y), drug alone, SCY-078/voriconazole test",> 16 µg/mL
